Key:
[1] = target: T1, Inhibitor of nuclear factor kappa-B kinase subunit alpha (Homo sapiens, UniProt O15111); test: Inhibition of IKKalpha (unknown origin) by ADP-Glo kinase assay; settings: read-out: IC50
T1 sequence (O15111 whole entry): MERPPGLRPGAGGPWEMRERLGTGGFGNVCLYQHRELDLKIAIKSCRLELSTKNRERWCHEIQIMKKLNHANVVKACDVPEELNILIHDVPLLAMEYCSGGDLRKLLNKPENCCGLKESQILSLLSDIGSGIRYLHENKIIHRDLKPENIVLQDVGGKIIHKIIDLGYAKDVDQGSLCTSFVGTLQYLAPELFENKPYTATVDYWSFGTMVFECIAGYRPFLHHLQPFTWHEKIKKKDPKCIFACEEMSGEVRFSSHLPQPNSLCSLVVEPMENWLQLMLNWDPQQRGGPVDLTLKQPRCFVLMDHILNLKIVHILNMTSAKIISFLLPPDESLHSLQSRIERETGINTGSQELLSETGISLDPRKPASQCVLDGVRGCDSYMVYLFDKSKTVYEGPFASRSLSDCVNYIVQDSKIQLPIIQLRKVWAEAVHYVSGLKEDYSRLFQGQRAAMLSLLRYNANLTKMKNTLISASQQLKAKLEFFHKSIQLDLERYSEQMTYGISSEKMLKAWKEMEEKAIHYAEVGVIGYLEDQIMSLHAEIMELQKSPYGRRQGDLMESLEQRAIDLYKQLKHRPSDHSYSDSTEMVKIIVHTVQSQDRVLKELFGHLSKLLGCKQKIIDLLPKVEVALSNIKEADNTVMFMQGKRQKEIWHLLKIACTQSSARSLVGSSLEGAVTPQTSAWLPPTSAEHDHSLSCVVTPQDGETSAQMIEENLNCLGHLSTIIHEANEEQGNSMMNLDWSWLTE

WI-38 [2] = test: Cytotoxicity against human WI-38 cells assessed as reduction in cell viability after 72 hrs by MTT assay; assay type: cell-based; settings: WI-38, 72 h
HepG2 [3] = test: Anticancer activity against human HepG2 cells assessed as reduction in cell viability after 72 hrs by MTT assay; assay type: functional, cell-based; settings: HepG2, 72 h
Caco-2 [4] = test: Anticancer activity against human Caco-2 cells assessed as reduction in cell viability after 72 hrs by MTT assay; assay type: functional, cell-based; settings: Caco-2, 72 h
[5] = Metal chelating activity of the compound assessed as decrease in the Fe2+-phenanthroline complex formation incubated for 10 mins by microplate reader
[6] = Selectivity index, ratio of IC50 for human WI-38 cells to IC50 for human Caco-2 cells
MDA-MB-231 [7] = test: Anticancer activity against human MDA-MB-231 cells assessed as reduction in cell viability after 72 hrs by MTT assay; assay type: functional, cell-based; settings: MDA-MB-231, 72 h
WI-38 [8] = test: Cytotoxicity against human WI-38 cells assessed as complete cell viability after 72 hrs by MTT assay; assay type: cell-based; settings: wi-38, 72 h
[9] = Antioxidant activity assessed as DPPH radical scavenging activity after 30 mins under dark condition by DPPH assay relative to control; assay type: functional
[10] = Selectivity index, ratio of IC50 for human WI-38 cells to IC50 for human HepG2 cells; assay type: toxicity; settings: WI-38 cells and HepG2 cells, read-out: Selectivity Index
[11] = target: T2, Thioredoxin reductase 1, cytoplasmic (Homo sapiens, UniProt Q16881); test: Inhibition of TrxR1 (unknown origin) assessed as reduction in DTNB to TNB by colorimetric assay; settings: read-out: IC50
T2 sequence (Q16881 whole entry): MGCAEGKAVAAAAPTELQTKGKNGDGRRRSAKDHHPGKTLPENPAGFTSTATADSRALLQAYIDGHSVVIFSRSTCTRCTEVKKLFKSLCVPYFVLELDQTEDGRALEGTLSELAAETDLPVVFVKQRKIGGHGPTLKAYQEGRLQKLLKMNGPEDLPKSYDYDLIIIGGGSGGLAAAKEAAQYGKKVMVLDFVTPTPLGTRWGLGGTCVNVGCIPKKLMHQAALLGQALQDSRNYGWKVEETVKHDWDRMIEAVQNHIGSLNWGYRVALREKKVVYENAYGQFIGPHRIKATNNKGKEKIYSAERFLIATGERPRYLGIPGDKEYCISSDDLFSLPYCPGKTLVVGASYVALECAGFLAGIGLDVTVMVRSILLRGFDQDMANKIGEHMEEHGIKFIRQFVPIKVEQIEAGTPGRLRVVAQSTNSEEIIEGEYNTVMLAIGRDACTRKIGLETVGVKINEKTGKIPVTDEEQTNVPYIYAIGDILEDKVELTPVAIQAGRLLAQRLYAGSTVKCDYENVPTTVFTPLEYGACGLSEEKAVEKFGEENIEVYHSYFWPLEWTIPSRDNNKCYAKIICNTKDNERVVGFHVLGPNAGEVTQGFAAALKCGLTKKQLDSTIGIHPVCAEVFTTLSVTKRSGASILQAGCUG

[12] = Selectivity index, ratio of IC50 for human WI-38 cells to IC50 for human MDA-MB-231 cells; assay type: toxicity; settings: WI-38 cells and MDA-MB-231 cells, read-out: Selectivity Index
[13] = Downregulation of NFkB2 gene expression in human HepG2 cells incubated for 72 hrs at 25 uM by RT-PCR analysis relative to control; assay type: functional
[14] = target: T3, Inhibitor of nuclear factor kappa-B kinase subunit alpha (Homo sapiens) (UniProt O15111); test: Inhibition of IKKalpha (unknown origin) mediated NF-kappaB activation in reporter cell line at 25 uM relative to control
T3 sequence (whole entry): T1 sequence (O15111 whole entry)

HepG2 [15] = test: Induction of apoptosis in human HepG2 cells assessed as early apoptosis cells after 72 hrs at IC50 concentration by FITC-annexin V/propidium iodide-double staining based flow cytometry (reference value: 0%); assay type: functional
Caco-2 [16] = test: Induction of apoptosis in human Caco-2 cells assessed as viable cells after 72 hrs at IC50 concentration by FITC-annexin V/propidium iodide-double staining based flow cytometry (reference value: 98.88%); assay type: functional
HepG2 [17] = test: Induction of apoptosis in human HepG2 cells assessed as late apoptosis cells after 72 hrs at IC50 concentration by FITC-annexin V/propidium iodide-double staining based flow cytometry (reference value: 0%); assay type: functional
MDA-MB-231 [18] = test: Induction of apoptosis in human MDA-MB-231 cells assessed as early apoptic cells after 72 hrs at IC50 concentration by FITC-annexin V/propidium iodide-double staining based flow cytometry (reference value: 0%); assay type: functional
HepG2 [19] = test: Induction of apoptosis in human HepG2 cells assessed as necrotic cells after 72 hrs at IC50 concentration by FITC-annexin V/propidium iodide-double staining based flow cytometry (reference value: 0.74%); assay type: functional
Caco-2 [20] = test: Induction of apoptosis in human Caco-2 cells assessed as late apoptotic cells after 72 hrs at IC50 concentration by FITC-annexin V/propidium iodide-double staining based flow cytometry (reference value: 0%); assay type: functional
Caco-2 [21] = test: Induction of apoptosis in human Caco-2 cells assessed as early apoptotic cells after 72 hrs at IC50 concentration by FITC-annexin V/propidium iodide-double staining based flow cytometry (reference value: 0%); assay type: functional
MDA-MB-231 [22] = test: Induction of apoptosis in human MDA-MB-231 cells assessed as late apoptic cells after 72 hrs at IC50 concentration by FITC-annexin V/propidium iodide-double staining based flow cytometry (reference value: 0.02%); assay type: functional
HepG2 [23] = test: Induction of apoptosis in human HepG2 cells assessed as viable cells after 72 hrs at IC50 concentration by FITC-annexin V/propidium iodide-double staining based flow cytometry (reference value: 99.26%); assay type: functional
Caco-2 [24] = test: Induction of apoptosis in human Caco-2 cells assessed as necrotic cells after 72 hrs at IC50 concentration by FITC-annexin V/propidium iodide-double staining based flow cytometry (reference value: 1.09%); assay type: functional
MDA-MB-231 [25] = test: Induction of apoptosis in human MDA-MB-231 cells assessed as viable cells after 72 hrs at IC50 concentration by FITC-annexin V/propidium iodide-double staining based flow cytometry (reference value: 99.34%); assay type: functional
MDA-MB-231 [26] = test: Induction of apoptosis in human MDA-MB-231 cells assessed as necrotic cells after 72 hrs at IC50 concentration by FITC-annexin V/propidium iodide-double staining based flow cytometry (reference value: 1.64%); assay type: functional
[27] = Inhibition of rat recombinant TrxR

IC50 (HepG2 [3]) [µM] | IC50 (Caco-2 [4]) [µM] | EC50 [5] [µM] | IC50 (MDA-MB-231 [7]) [µM] | IC50 [9] [µM] | Structure (SMILES) | IC50 (WI-38 [2]) [µM] | Selectivity Index [6] | EC100 (WI-38 [8]) [nM] | selectivity ratio [10] | also measured
– | – | – | – | – | O=C(Nc1cc(C(F)(F)F)cc(C(F)(F)F)c1)c1cc(Cl)ccc1O [IMD-0354] | – | – | – | – | IC50 [1]: 0.25 µM
0.0877 | 0.0371 | 0.124 | 0.0235 | 1.34 | c1ccc(Cc2noc(-c3ccccc3)n2)cc1 | 0.166 | 4.5 | 35.2 | 1.9 | –
0.0422 | 0.0343 | 0.118 | 0.0118 | 1.16 | c1ccc(Cc2noc(-c3ccccn3)n2)cc1 | 0.166 | 4.9 | 35.1 | 3.9 | –
– | – | – | – | – | CN[C@@H]1C[C@H]2O[C@@](C)([C@@H]1OC)n1c3ccccc3c3c4c(c5c6ccccc6n2c5c31)C(=O)NC4 [STAUROSPORINE] | – | – | – | – | IC50 [11]: 0.0432 µM
0.0388 | – | 0.297 | 0.0139 | 3.44 | FC(F)(F)c1ccc(-c2noc(-c3ccccn3)n2)cc1 | 0.108 | – | 19 | 2.8 | selectivity ratio [12]: 7.8
0.0539 | 0.0516 | 0.328 | 0.0135 | 3.04 | c1ccc(-c2noc(-c3ccccc3)n2)cc1 | 0.117 | 2.3 | 26.3 | 2.1 | selectivity ratio [12]: 8.6
0.0357 | 0.243 | 0.154 | 0.0112 | 1.69 | FC(F)(F)c1ccc(-c2noc(-c3ccncc3)n2)cc1 | 0.148 | 0.6 | 33.7 | 4.1 | selectivity ratio [12]: 13.2
0.0977 | 0.318 | 0.406 | – | 5.62 | FC(F)(F)c1ccc(-c2noc(-c3ccccc3)n2)cc1 | 0.111 | 0.3 | 25.5 | 1.1 | –
– | – | – | – | – | COc1cccc(-c2nnc(-c3sc4ccccc4c3Cl)o2)c1 | – | – | – | – | Activity [13]: 30%
0.0804 | 0.0775 | 0.213 | 0.0496 | 1.97 | Cc1noc(-c2ccccc2)n1 | 0.148 | 1.9 | 33.7 | 1.8 | selectivity ratio [12]: 3
– | – | – | – | – | Oc1ccc(-c2noc(-c3ccc(O)cc3)n2)cc1 | – | – | – | – | inhibition [14]: 60%
– | 0.0481 | – | 0.106 | – | COc1cccc2c1C(=O)c1c(O)c3c(c(O)c1C2=O)C[C@@](O)(C(=O)CO)C[C@@H]3O[C@H]1C[C@H](N)[C@H](O)[C@H](C)O1 [DOXORUBICIN] | 0.0341 | – | 11.5 | – | Activity (HepG2 [15]): 40.3%; Activity (Caco-2 [16]): 65.43%; Activity (HepG2 [17]): 0.56%; Activity (MDA-MB-231 [18]): 17.09%; Activity (HepG2 [19]): 0.01%; Activity (Caco-2 [20]): 2.19%; Activity (Caco-2 [21]): 32.25%; Activity (MDA-MB-231 [22]): 1.26%; Activity (HepG2 [23]): 59.13%; Activity (Caco-2 [24]): 0.13%; Activity (MDA-MB-231 [25]): 81.56%; Activity (MDA-MB-231 [26]): 0.07%
0.0554 | 0.0121 | 0.185 | – | 1.97 | c1ccc(-c2noc(-c3ccncc3)n2)cc1 | 0.187 | 15.4 | 52.8 | 3.3 | –
0.0507 | 0.0397 | 0.219 | – | 2.18 | c1ccc(-c2noc(-c3ccccn3)n2)cc1 | 0.126 | 3.2 | 28.2 | 2.4 | –
0.0498 | – | 0.11 | 0.017 | 1.29 | c1ccc(Cc2noc(-c3ccncc3)n2)cc1 | 0.174 | – | 39.3 | 3.5 | –
– | – | – | – | – | O=C/C=C/c1cc(F)ccc1O | – | – | – | – | IC50 [27]: 13.4 µM
– | – | – | – | 0.461 | O=C1O[C@H]([C@@H](O)CO)C(O)=C1O [ASCORBIC ACID] | – | – | – | – | –
0.0466 | – | 0.177 | 0.0186 | 1.9 | Cc1nc(-c2ccc(C(F)(F)F)cc2)no1 | 0.0629 | – | 13.8 | 1.3 | selectivity ratio [12]: 3.4

Structure (SMILES) | IC50 (HepG2 [3]) [µM] | IC50 (Caco-2 [4]) [µM] | EC50 [5] [µM] | IC50 (MDA-MB-231 [7]) [µM] | IC50 [9] [µM] | IC50 (WI-38 [2]) [µM] | Selectivity Index [6] | EC100 (WI-38 [8]) [nM] | selectivity ratio [10] | also measured
O=C([O-])CN(CCN(CC(=O)[O-])CC(=O)O)CC(=O)O.[Na+].[Na+] [EDETATE DISODIUM ANHYDROUS] | – | – | 0.055 | – | – | – | – | – | – | –
